Inhibition in vivo, Ki and ED50 data for 10 molecules are collected here from ChEMBL document CHEMBL1129006, “Orally active inhibitors of stromelysin-1 (MMP-3)” (Bioorg Med Chem Lett, 1996).

Assay [1] deals with Mus musculus. Nature of the assay: Compound was tested for inhibition of MMP-3 -mediated degradation of radiolabeled transferrin in mouse pleural cavity(PLCAV) at a dose 100 mg/kg administered perorally. The assay is classed as functional. The settings on record: route oral.
Assay [2] relates to Mus musculus. The assay is described as follows: Compound was tested for inhibition of MMP-3 -mediated degradation of radiolabeled transferrin in mouse pleural cavity(PLCAV) at a dose 30 mg/kg administered intravenously. The settings on record: route intravenous. The assay is classed as functional.
Assay [3] deals with 72 kDa type IV collagenase (Homo sapiens, UniProt P08253). Nature of the assay: Inhibition of matrix metalloprotease-2 (MMP-2).
Sequence of 72 kDa type IV collagenase (P08253 whole entry): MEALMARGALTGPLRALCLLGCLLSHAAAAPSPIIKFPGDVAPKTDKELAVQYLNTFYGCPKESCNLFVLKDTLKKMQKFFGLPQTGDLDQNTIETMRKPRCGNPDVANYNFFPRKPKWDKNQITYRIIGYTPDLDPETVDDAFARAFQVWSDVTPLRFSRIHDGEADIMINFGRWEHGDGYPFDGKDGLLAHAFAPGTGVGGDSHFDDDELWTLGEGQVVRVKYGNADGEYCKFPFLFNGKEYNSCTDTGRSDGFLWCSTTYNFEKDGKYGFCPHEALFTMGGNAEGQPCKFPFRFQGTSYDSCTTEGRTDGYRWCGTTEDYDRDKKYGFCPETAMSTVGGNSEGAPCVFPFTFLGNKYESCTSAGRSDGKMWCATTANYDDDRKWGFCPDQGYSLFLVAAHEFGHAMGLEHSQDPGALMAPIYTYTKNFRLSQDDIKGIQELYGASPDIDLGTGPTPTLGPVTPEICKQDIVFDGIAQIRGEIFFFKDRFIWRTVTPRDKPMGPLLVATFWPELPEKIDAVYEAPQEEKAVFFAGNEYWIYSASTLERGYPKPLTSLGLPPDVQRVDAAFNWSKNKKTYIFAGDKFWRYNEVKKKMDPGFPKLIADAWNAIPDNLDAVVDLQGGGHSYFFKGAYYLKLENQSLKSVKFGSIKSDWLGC
Another assay deals with Stromelysin-1 (Homo sapiens, UniProt P08254).
Sequence of Stromelysin-1 (P08254 whole entry): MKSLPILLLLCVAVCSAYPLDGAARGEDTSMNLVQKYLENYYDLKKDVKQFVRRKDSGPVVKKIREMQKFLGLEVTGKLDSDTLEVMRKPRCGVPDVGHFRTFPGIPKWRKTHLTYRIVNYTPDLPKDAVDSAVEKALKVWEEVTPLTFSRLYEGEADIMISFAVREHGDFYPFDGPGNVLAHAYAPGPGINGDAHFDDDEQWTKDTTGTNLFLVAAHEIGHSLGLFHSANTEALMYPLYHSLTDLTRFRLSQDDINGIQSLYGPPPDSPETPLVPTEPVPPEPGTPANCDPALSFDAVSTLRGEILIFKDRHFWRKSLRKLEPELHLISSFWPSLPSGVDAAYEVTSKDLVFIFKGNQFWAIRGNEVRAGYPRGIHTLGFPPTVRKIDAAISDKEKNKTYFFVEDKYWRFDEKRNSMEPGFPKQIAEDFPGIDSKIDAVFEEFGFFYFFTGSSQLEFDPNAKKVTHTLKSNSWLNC
For another assay, the target named is T1, Interstitial collagenase (Homo sapiens, UniProt P03956).
T1 sequence (P03956 whole entry): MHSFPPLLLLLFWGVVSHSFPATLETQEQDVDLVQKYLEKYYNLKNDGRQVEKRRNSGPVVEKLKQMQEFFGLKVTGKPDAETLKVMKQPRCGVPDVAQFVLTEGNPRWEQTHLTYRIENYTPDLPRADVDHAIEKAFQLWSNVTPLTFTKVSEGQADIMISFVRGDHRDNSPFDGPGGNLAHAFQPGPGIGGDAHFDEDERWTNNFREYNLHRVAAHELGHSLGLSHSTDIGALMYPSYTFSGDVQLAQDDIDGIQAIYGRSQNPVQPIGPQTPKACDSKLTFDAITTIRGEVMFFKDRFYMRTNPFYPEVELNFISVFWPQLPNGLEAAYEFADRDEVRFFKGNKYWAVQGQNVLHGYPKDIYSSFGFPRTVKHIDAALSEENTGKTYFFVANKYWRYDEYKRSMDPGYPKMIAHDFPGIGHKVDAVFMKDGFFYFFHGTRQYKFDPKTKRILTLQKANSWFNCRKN
The assay is described as follows: Inhibition of matrix metalloprotease-1 (MMP-1).

Description for Stromelysin-1: Inhibition of matrix metalloprotease-3 (MMP-3).

`CC(C)C[C@H](NC(=O)[C@H](CCc1ccccc1)N[C@H](CCCCN1C(=O)c2ccccc2C1=O)C(=O)O)C(=O)Nc1ccccc1`: the inhibition in vivo at 100 mg/kg with Mus musculus [1] came to 1%. The inhibition in vivo at 30 mg/kg in the assay on Mus musculus [2] was 91%.

With `CCCc1ccc(CC[C@H](N[C@H](CCCCN2C(=O)c3ccccc3C2=O)C(=O)O)C(=O)N[C@@H](CC(C)C)C(=O)Nc2ccccc2)cc1`, the Ki is 2.6 nM in assay [3], 1.9 nM at Stromelysin-1 and greater than 10000 nM on Interstitial collagenase. The molecule also gave an inhibition in vivo at 30 mg/kg in the assay with Mus musculus [2] of 89%.

With `CC(C)C[C@H](NC(=O)[C@H](CCc1ccccc1)NCC(=O)O)C(=O)Nc1ccccc1`, the Ki in assay [3] stood at 470 nM; on Stromelysin-1, 3600 nM; on Interstitial collagenase it was 4620 nM.

Take `CCCc1ccc(CC[C@H](C[C@H](CCCCN2Cc3ccccc3C2=O)C(=O)O)C(=O)N[C@@H](CC(C)C)C(=O)Nc2ccccc2)cc1`: the results for the inhibition constant (Ki) (in assay [3]; at Stromelysin-1; on Interstitial collagenase) were 5.7 nM, 0.36 nM and greater than 10000 nM, respectively. Also, the inhibition in vivo at 100 mg/kg with Mus musculus [1] is 20%. This molecule also returned an inhibition in vivo at 30 mg/kg in the assay with Mus musculus [2] of 82%.

For the molecule `CCCc1ccc(CC[C@H](N[C@H](CCCCN2Cc3ccccc3C2=O)C(=O)O)C(=O)N[C@@H](CC(C)C)C(=O)Nc2ccccc2)cc1`, the figures for the Ki (in assay [3]; on Stromelysin-1; on Interstitial collagenase) were 110 nM, 9.5 nM and 1600 nM, respectively. Besides, 100 mg/kg produced 4% inhibition in vivo in the assay on Mus musculus [1]. Also, at 30 mg/kg the inhibition in vivo in the assay with Mus musculus [2] was 81%.

With `CC(C)C[C@H](NC(=O)[C@@H](CCC(=O)O)CCc1ccccc1)C(=O)Nc1ccccc1`, the Ki in assay [3] is greater than 1000 nM; at Stromelysin-1, 5800 nM; at Interstitial collagenase, greater than 10000 nM.

As for `CCCc1ccc(CC[C@H](CCC(=O)O)C(=O)N[C@@H](CC(C)C)C(=O)Nc2ccccc2)cc1`, the Ki in assay [3] was 220 nM; at Stromelysin-1, 140 nM; on Interstitial collagenase, greater than 10000 nM. In the assay with Mus musculus [1], this molecule returned an ED50 of 47 mg/kg.

For `CCCc1ccc(CC[C@H](C[C@H](C)C(=O)O)C(=O)N[C@@H](CC(C)C)C(=O)Nc2ccccc2)cc1`, the figures for the Ki (in assay [3]; at Stromelysin-1; at Interstitial collagenase) were 310 nM, 68 nM and greater than 10000 nM, respectively. The molecule also came in with an ED50 in the assay on Mus musculus [1] of 32 mg/kg.

Molecule `CCCc1ccc(CC[C@H](N[C@H](C)C(=O)O)C(=O)N[C@@H](CC(C)C)C(=O)Nc2ccccc2)cc1` returned an ED50 in the assay on Mus musculus [1] of 65 mg/kg. 30 mg/kg produced 63% inhibition in vivo in the assay with Mus musculus [2].

Molecule `CC(C)C[C@H](NC(=O)[C@H](CCc1ccccc1)N[C@H](C)C(=O)O)C(=O)Nc1ccccc1` [L-696418] displayed a Ki on Interstitial collagenase of 770 nM. This molecule returned an inhibition in vivo at 100 mg/kg in the assay with Mus musculus [1] of 55%. This molecule came in with an inhibition in vivo at 30 mg/kg in the assay with Mus musculus [2] of 50%.
